Experimental data published in PubChem BioAssay AID330 (DTP/NCI, 2004).
“And” between values parts separate entries of the source, which are not always exact repeats. Identical values can stand only once. Inconclusive results and toxic doses are left out.

Test system: P388 leukemia ip, CD2F1 mice, survival T/C
Assay: NCI In Vivo Anticancer Drug Screen. Data for tumor model P388 Leukemia (intraperitoneal) in CD2F1 (CDF1) mice
Settings: endpoint: median survival time, higher = longer survival
Outline: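 Mice carrying the transplanted tumor received test compound or vehicle. Survival was recorded in each group, and the value is the treated-group measurement divided by that of the vehicle-treated control group.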

[1] = dose: 60.0 mg/kg/injection, schedule: Q01DX005 (ip), vehicle: saline with Tween-80
[2] = dose: 120.0 mg/kg/injection, schedule: Q01DX005 (ip), vehicle: saline with Tween-80
[3] = dose: 100.0 mg/kg/injection, schedule: Q01DX009 (ip), vehicle: saline with Tween-80
[4] = dose: 200.0 mg/kg/injection, schedule: Q01DX009 (ip), vehicle: saline with Tween-80
[5] = dose: 400.0 mg/kg/injection, schedule: Q01DX009 (ip), vehicle: saline with Tween-80

SMILES: CSc1n[nH]c(-c2cccs2)n1
- T/C (dose: 60.0 mg/kg/injection, schedule: Q01DX005 (ip), vehicle: Klucel (hydroxypropylcellulose) (HPC)): 104 % of control
- T/C (dose: 120.0 mg/kg/injection, schedule: Q01DX005 (ip), vehicle: Klucel (hydroxypropylcellulose) (HPC)): 105 % of control

SMILES: CCC(=O)NCC(=O)O
- T/C (dose: 3.13 mg/kg/injection, schedule: Q01DX009 (ip), vehicle: saline with Tween-80): 100 % of control
- T/C (dose: 6.25 mg/kg/injection, schedule: Q01DX009 (ip), vehicle: saline with Tween-80): 104 % of control and 86 % of control
- T/C (dose: 6.25 mg/kg/injection, schedule: Q04DX003 (ip), vehicle: saline with Tween-80): 110 % of control
- T/C (dose: 12.5 mg/kg/injection, schedule: Q01DX009 (ip), vehicle: saline with Tween-80): 109 % of control
- T/C (dose: 12.5 mg/kg/injection, schedule: Q04DX003 (ip), vehicle: saline with Tween-80): 100 % of control
- T/C (dose: 25.0 mg/kg/injection, schedule: Q04DX003 (ip), vehicle: saline with Tween-80): 100 % of control

SMILES: Cc1c(-c2ccccc2)noc1-n1nnc2ccccc2c1=O
- T/C [1]: 100 % of control
- T/C [2]: 100 % of control
- T/C (dose: 240.0 mg/kg/injection, schedule: Q01DX005 (ip), vehicle: saline with Tween-80): 89 % of control

SMILES: CC[As](CC)SC1OC(COC(C)=O)C(OC(C)=O)C(OC(C)=O)C1OC(C)=O (stereo not drawn)
- T/C (dose: 50.0 mg/kg/injection, schedule: Q01DX009 (ip), vehicle: saline + alcohol): 116 % of control
- T/C (dose: 50.0 mg/kg/injection, schedule: Q01DX009 (ip), vehicle: saline with Tween-80): 108 % of control
- T/C (dose: 100.0 mg/kg/injection, schedule: Q01DX009 (ip), vehicle: saline + alcohol): 180 % of control
- T/C [3]: 115 % of control
- T/C (dose: 200.0 mg/kg/injection, schedule: Q01DX009 (ip), vehicle: saline + alcohol): 181 % of control
- T/C [4]: 96 % of control
- T/C [5]: 102 % of control

SMILES: O=C1NCC(=O)C(=O)N1
- T/C (dose: 50.0 mg/kg/injection, schedule: Q01DX009 (ip), vehicle: saline): 100 % of control and 106 % of control
- T/C (dose: 100.0 mg/kg/injection, schedule: Q01DX009 (ip), vehicle: saline): 101 % of control and 103 % of control
- T/C (dose: 200.0 mg/kg/injection, schedule: Q01DX009 (ip), vehicle: saline): 100 % of control and 110 % of control
- T/C (dose: 400.0 mg/kg/injection, schedule: Q01DX009 (ip), vehicle: saline): 103 % of control and 105 % of control

SMILES: Cc1ccc(C(=O)NNC(O)C(F)(F)F)cc1 (stereo not drawn)
- T/C (dose: 100.0 mg/kg/injection, schedule: Q04DX003 (ip), vehicle: Klucel (hydroxypropylcellulose) (HPC)): 97 % of control
- T/C (dose: 200.0 mg/kg/injection, schedule: Q04DX003 (ip), vehicle: Klucel (hydroxypropylcellulose) (HPC)): 102 % of control

SMILES: c1ccc2c(c1)CCC1=C2S/C(=C2/SC3=C(S2)c2ccccc2CC3)S1
- T/C (dose: 7.5 mg/kg/injection, schedule: Q01DX005 (ip), vehicle: saline with Tween-80): 94 % of control
- T/C (dose: 15.0 mg/kg/injection, schedule: Q01DX005 (ip), vehicle: saline with Tween-80): 100 % of control
- T/C (dose: 30.0 mg/kg/injection, schedule: Q01DX005 (ip), vehicle: saline with Tween-80): 100 % of control

SMILES: Cn1c(N)c2c(=O)n(C)c3c(c2c(C#N)c1=O)CCSc1ccccc1-3
- T/C (dose: 50.0 mg/kg/injection, schedule: Q01DX005 (ip), vehicle: saline with Tween-80): 94 % of control
- T/C (dose: 100.0 mg/kg/injection, schedule: Q01DX005 (ip), vehicle: saline with Tween-80): 93 % of control

SMILES: CCCCN1C(=O)C2C3CCC(O3)C2C1=O (stereo not drawn)
- T/C [1]: 100 % of control
- T/C [2]: 92 % of control

SMILES: CC12CC(C(=O)O)C(C)(C1=O)C(c1ccccc1)=C2c1ccccc1 (stereo not drawn)
- T/C (dose: 25.0 mg/kg/injection, schedule: Q01DX009 (ip), vehicle: Klucel (hydroxypropylcellulose) (HPC)): 92 % of control
- T/C (dose: 50.0 mg/kg/injection, schedule: Q01DX009 (ip), vehicle: Klucel (hydroxypropylcellulose) (HPC)): 93 % of control
- T/C (dose: 100.0 mg/kg/injection, schedule: Q01DX009 (ip), vehicle: Klucel (hydroxypropylcellulose) (HPC)): 97 % of control
- T/C (dose: 200.0 mg/kg/injection, schedule: Q01DX009 (ip), vehicle: Klucel (hydroxypropylcellulose) (HPC)): 94 % of control

SMILES: CC(C)(C)c1ccc(OS(=O)(=O)c2cccc([N+](=O)[O-])c2)cc1
- T/C [3]: 95 % of control
- T/C [4]: 100 % of control
- T/C [5]: 100 % of control
